Test results: US20260262691A1, “USE OF VANILLYL ETHERS TO MODIFY FLAVOR” (Firmenich Incorporated, priority 2023, published 2026)

Assays:
[1] = Sensory panel rating of bitterness and astringency of liquid pea protein concentrate with vanillyl ethers; assay type: in vivo; conditions: pea protein 3 percent by weight in water, without sugar; vanillyl ether 0.5 ppm; sensory panelists, scale from 0 to 10
Protocol: Liquid pea protein concentrate compositions were prepared (3 percent by weight in water) without sugar added. Control and test samples were prepared. To two test samples vanillyl ethyl ether (VEE) and vanillyl butyl ether (VBE) were added, respectively, at a concentration of 0.5 ppm. The control and test samples were evaluated by sensory panelists to rate the bitterness and astringency of the control sample and the two test samples on a scale from 0 to 10. Table 2 reports the mean difference between the bitterness and astringency scores between the control sample and each of the two test samples.

[2] = Sensory panel rating of characteristics of lemon tea beverage with vanillyl ethers; assay type: in vivo; conditions: lemon tea beverage with Stevia sweetener, VEE 0.5 ppm (phloretin 8 ppm where combined), scale from 0 to 10, higher = more intense
Protocol: Samples of a lemon tea beverage were prepared.
Two test samples were prepared by adding (a) vanillyl ethyl ether (VEE) at a concentration of 0.5 ppm, and (b) vanillyl ethyl ether (VEE) at a concentration of 0.5 ppm and phloretin at a concentration of 8 ppm. The control and test samples were evaluated by sensory panelists to rate various characteristics of the control sample and the two test samples on a scale from 0 to 10.

Structure (SMILES)	Astringency: mean difference between scores of control sample and test sample [1]	Bitterness: mean difference between scores of control sample and test sample [1]	Off Note Intensity (mean score) ([2]; control 2.9)	Astringency (mean score) ([2]; control 3.0)	Mouthfeel (mean score) ([2]; control 3.1)	Bitterness (mean score) ([2]; control 3.8)	Unfront Sweetness (mean score) ([2]; control 4.5)	Lemon Flavor (mean score) ([2]; control 4.6)	Lingering Sweetness (mean score) ([2]; control 4.9)	Peak Sweetness (mean score) ([2]; control 5.4)
CCCCOCc1ccc(O)c(OC)c1 [VBE, 4-(butoxymethyl)-2-methoxyphenol]	−2.2	−1.0								
CCOCc1ccc(O)c(OC)c1 [VEE, 4-(ethoxymethyl)-2-methoxyphenol]	−1.5	−0.5	2.4	2.1	3.5	2.7	4.7	4.8	4.0	5.4
